Laboratory results: patent EP0755942B1, “N-AMIDINO […]” (DAIICHI PHARMACEUTICAL CO., LTD., priority 1994, dated 1995)

How the values were obtained:
[1] = test system: Mice; assay: analgesic activity by pressure stimulation method (tail base); type: in vivo; conditions: dose that induced 50 percent of % of MPE; for ED50(mg/kg) s.c.: subcutaneous administration (skin in the backs); for ED50(mg/kg) p.o.: oral administration
Protocol: The analgesic activities of the peptide derivatives of the present invention were evaluated by pressure stimulation method. Mice were subjected to pressure stimulation at the bases of their tails at the rate of 10 mmHg/second. […] For the experiments, mice that normally responded to a pressure of 40-50 mmHg were used. The maximum stimulating pressure was 100 mmHg. Analgesic activity was calculated as percent of maximum possible effect (% of MPE) according to the equation: % of MPE =(Pt - Po)/(Pc - Po)× 100 [formula] wherein Po is the pain reaction threshold before the administration of a drug; Pt is the pain reaction threshold "t" minutes after the administration of the drug; and Pc is the maximum stimulating pressure. ED50 values were calculated based on dose response curves as doses that induced 50 percent of % of MPE and analgesic activities of the drugs were compared.

[2] = cited from earlier work
[3] = intraventricular administration, relative to morphine; cited from earlier work

| Molecule | ED50(mg/kg) s.c. [1] [mg/kg] | ED50(mg/kg) p.o. [1] [mg/kg] | other results |
| --- | --- | --- | --- |
| CN(C)C(=O)[C@H](Cc1ccccc1)NC(=O)[C@@H](CCCNC(=N)N)NC(=O)[C@H](Cc1ccc(O)cc1)NC(=N)N [H2NC(NH)-Tyr-(D)Arg-Phe-N(Me)2] | 1.22 |  |  |
| N=C(N)NCCC[C@@H](NC(=O)[C@H](Cc1ccc(O)cc1)NC(=N)N)C(=O)N[C@@H](Cc1ccccc1)C(=O)NCCC(N)=O [H2NC(NH)-Tyr-D-Arg-Phe-NHCH2CH2CONH2] | 0.13 | 10.7 |  |
| N=C(N)NCCC[C@@H](NC(=O)[C@H](Cc1ccc(O)cc1)NC(=N)N)C(=O)N[C@@H](Cc1ccccc1)C(=O)NCCCO [H2NC(NH)-Tyr-D-Arg-Phe-NHCH2CH2CH2OH] | 0.88 |  |  |
| CN(CCC(=O)O)C(=O)[C@H](Cc1ccccc1)NC(=O)[C@@H](CCCNC(=N)N)NC(=O)[C@H](Cc1ccc(O)cc1)NC(=N)N [H2NC(NH)-Tyr-D-Arg-Phe-N(CH3)CH2CH2COOH] | 0.10 | 6.6 |  |
| Tyr-D-Arg^2-Phe-Sarcosine [TAPS] |  |  | potency relative to dermorphin ([2]; opioid effects such as analgesia, relative to dermorphin): about 6 times; duration of sufficient analgesic effects ([2]; oral administration): 3 h |
| CCN(CCC(=O)O)C(=O)[C@H](Cc1ccccc1)NC(=O)[C@@H](CCCNC(=N)N)NC(=O)[C@H](Cc1ccc(O)cc1)NC(=N)N [H2NC(NH)-Tyr-D-Arg-Phe-N(CH2CH3)CH2CH2COOH] | 0.15 | 16.0 |  |
| N=C(N)NCCC[C@@H](NC(=O)[C@H](Cc1ccc(O)cc1)NC(=N)N)C(=O)N[C@@H](Cc1ccccc1)C(=O)NCCC(=O)O [H2NC(NH)-Tyr-D-Arg-Phe-NHCH2CH2COOH] | 0.14 | 5.8 |  |
| CN(CC(=O)O)C(=O)[C@H](Cc1ccccc1)NC(=O)[C@@H](CCCNC(=N)N)NC(=O)[C@H](Cc1ccc(O)cc1)NC(=N)N [H2NC(NH)-Tyr-D-Arg-Phe-N(CH3)CH2COOH] | 0.39 | 17.8 |  |
| COC(=O)CCN(C)C(=O)[C@H](Cc1ccccc1)NC(=O)[C@@H](CCCNC(=N)N)NC(=O)[C@H](Cc1ccc(O)cc1)NC(=N)N [H2NC(NH)-Tyr-D-Arg-Phe-N(CH3)CH2CH2COOCH3] | 0.12 | 8.9 |  |
| CN(CC(N)=O)C(=O)[C@H](Cc1ccccc1)NC(=O)[C@@H](CCCNC(=N)N)NC(=O)[C@H](Cc1ccc(O)cc1)NC(=N)N [H2NC(NH)-Tyr-(D)Arg-Phe-N(CH3)CH2CONH2] | 0.27 |  |  |
| Dermorphine |  |  | analgesic effect higher than morphine [3]: about 1,000 fold |
